≈ marks a conversion by molar mass, not a printed value. Like-named read-outs stand apart in the source and are kept apart here. Non-standard residues stand in square brackets, D forms with d. Residues, ends and D or L forms follow the SMILES beside them. ξ: configuration not given here. Trp(5-F) = N[C@@H](Cc1c[nH]c2ccc(F)cc12)C(=O)O; ξTrp(5-OMe) = COc1ccc2[nH]cc(CC(N)C(=O)O)c2c1; ξTrp(5-Me) = Cc1ccc2[nH]cc(CC(N)C(=O)O)c2c1; ξTrp(7-aza) = NC(Cc1c[nH]c2ncccc12)C(=O)O
What was measured:
Assay type in all cases: cell-based
[1] = system: Escherichia coli (ATCC 8739)
Text: (§1) The bacterial strains for the antimicrobial assay were obtained from the ATCC (American Type Culture Collection, Manassas, VA, USA) and NCTC (National Collection of Type Cultures, Salisbury, UK). Gram-negative strains were Pseudomonas aeruginosa (ATCC 27853), Escherichia coli (ATCC 8739, ATCC 35218, and ATCC 25922), Salmonella enterica (ATCC 13076), Klebsiella pneumoniae (NCTC 13440), Acinetobacter baumannii (ATCC 17978) and the Gram-positive strains were Enterococcus faecalis (ATCC 29212), Listeria monocytogenes (ATCC 19111), and Staphylococcus aureus (HNCMO112011 and ATCC 25923).
(§2) Determination of antibacterial activity for the peptides was carried out by utilizing a minimum bactericidal concentration (MBC) bioassay. Synthesized peptides were dissolved in sterile water and used from 25 to 0.125 μM in 2-fold dilution series and incubated with ~10^7 log phase bacteria in Potassium-Phosphate Buffer (PPB, pH: 7.4) for three hours as described earlier. After that, 5 μl of each sample was placed on LB agar and the growth of bacteria was monitored after overnight incubation at 37 °C. The lowest concentration of the antimicrobial agents that completely eliminated viable bacteria was considered the minimal bactericidal concentration (MBC).

[2] = system: Pseudomonas aeruginosa (ATCC 27853)
Text: as §1, §2

[3] = system: Enterococcus faecalis (ATCC 29212)
Text: as §1, §2

[4] = system: Staphylococcus aureus (HNCMO112011)
Text: as §1, §2

[5] = system: Acinetobacter baumannii (ATCC 17978)
Text: as §1, §2

[6] = system: Klebsiella pneumoniae (NCTC 13440)
Text: as §1, §2

[7] = system: tested bacteria (ESKAPE pathogens, Listeria monocytogenes, Salmonella enterica)
Text: as §1, §2

[8] = system: Salmonella enterica (ATCC 13076)
Text: as §1, §2

[9] = system: Listeria monocytogenes (ATCC 19111)
Text: as §1, §2

[10] = Pseudomonas aeruginosa ATCC 27853, ~10^7 log phase bacteria, 3 h in PPB pH 7.4, peptide 25 to 0.125 μM 2-fold series, plated on LB agar, overnight 37 °C
[11] = Klebsiella pneumoniae NCTC 13440, ~10^7 log phase bacteria, 3 h in PPB pH 7.4, peptide 25 to 0.125 μM 2-fold series, plated on LB agar, overnight 37 °C
[12] = summary over the tested bacterial species, 3 h in PPB pH 7.4

| Compound | Minimal bactericidal concentration (MBC) E. c. ([1]; ATCC 8739, 3 h, pH 7.4) | Minimal bactericidal concentration (MBC) P. a. [2, 10] | Minimal bactericidal concentration (MBC) E. f. ([3]; ATCC 29212, 3 h, pH 7.4) | Minimal bactericidal concentration (MBC) S. a. ([4]; HNCMO112011, 3 h, pH 7.4) | Minimal bactericidal concentration (MBC) A. b. ([5]; ATCC 17978, 3 h, pH 7.4) | Minimal bactericidal concentration (MBC) K. p. ([6]; NCTC 13440, 3 h, pH 7.4) | MBC against most or all of the tested bacteria ([7]; 3 h, pH 7.4) | Minimal bactericidal concentration (MBC) S. e. ([8]; ATCC 13076, 3 h, pH 7.4) | Minimal bactericidal concentration (MBC) L. m. ([9]; ATCC 19111, 3 h, pH 7.4) | Minimal bactericidal concentration (MBC) P. a. ([2]; ATCC 27853, 3 h, pH 7.4) | Minimal bactericidal concentration (MBC) E. c. ([1]; Escherichia coli ATCC 8739, ~10^7 log phase bacteria, 3 h in PPB pH 7.4, peptide 25 to 0.125 μM 2-fold series, plated on LB agar, overnight 37 °C) | Minimal bactericidal concentration (MBC) E. f. ([3]; Enterococcus faecalis ATCC 29212, ~10^7 log phase bacteria, 3 h in potassium-phosphate buffer (PPB) pH 7.4, peptide 25 to 0.125 μM 2-fold series, 5 μl on LB agar, overnight 37 °C) | Minimal bactericidal concentration (MBC) S. a. ([4]; Staphylococcus aureus HNCMO112011, ~10^7 log phase bacteria, 3 h in PPB pH 7.4, peptide 25 to 0.125 μM 2-fold series, plated on LB agar, overnight 37 °C) | Minimal bactericidal concentration (MBC) A. b. ([5]; Acinetobacter baumannii ATCC 17978, ~10^7 log phase bacteria, 3 h in PPB pH 7.4, peptide 25 to 0.125 μM 2-fold series, plated on LB agar, overnight 37 °C) | Minimal bactericidal concentration (MBC) K. p. [6, 11] | MBC against most or all of the tested bacteria [7, 12] | Minimal bactericidal concentration (MBC) S. e. ([8]; Salmonella enterica ATCC 13076, ~10^7 log phase bacteria, 3 h in PPB pH 7.4, peptide 25 to 0.125 μM 2-fold series, plated on LB agar, overnight 37 °C) | Minimal bactericidal concentration (MBC) L. m. ([9]; Listeria monocytogenes ATCC 19111, ~10^7 log phase bacteria, 3 h in PPB pH 7.4, peptide 25 to 0.125 μM 2-fold series, plated on LB agar, overnight 37 °C) |
| --- | --- | --- | --- | --- | --- | --- | --- | --- | --- | --- | --- | --- | --- | --- | --- | --- | --- | --- |
| CC[C@H](C)[C@H](NC(=O)[C@H](CCCCN)NC(=O)[C@H](Cc1ccccc1)NC(=O)[C@H](CC(C)C)NC(=O)[C@@H]1CCCN1C(=O)[C@H](CCCCN)NC(=O)[C@H](CCCCN)NC(=O)[C@H](CO)NC(=O)[C@@H](N)CCCCN)C(=O)NC(Cc1c[nH]c2ccc(OC)cc12)C(=O)N[C@@H](CCCCN)C(=O)N[C@@H](CO)C(=O)N[C@H](C(=O)N[C@@H](CCC(=O)O)C(=O)N[C@@H](CC(N)=O)C(=O)N[C@H](C(=O)N[C@@H](CO)C(=O)N[C@H](C(=O)N[C@@H](CC(C)C)C(=O)N[C@@H](Cc1c[nH]c2ccccc12)C(=O)N[C@@H](Cc1ccc(O)cc1)C(=O)N[C@@H](CCCCN)C(N)=O)C(C)C)C(C)C)C(C)C (some centres unmarked) [NCR169C17–38C12,17/S-10W^5-MeO II] (H-KSKKPLFKI[ξTrp(5-OMe)]KSVENVSVLWYK-NH2; N-terminus assumed) | 3.1 µM (≈ 8.49 µg/mL) | 25 µM (≈ 68.4 µg/mL) | 3.1 µM (≈ 8.49 µg/mL) | 3.1 µM (≈ 8.49 µg/mL) | 3.1 µM (≈ 8.49 µg/mL) | 3.1 µM (≈ 8.49 µg/mL) | 3.1 µM | 3.1 µM (≈ 8.49 µg/mL) | 3.1 µM (≈ 8.49 µg/mL) |  |  |  |  |  |  |  |  |  |
| CC[C@H](C)[C@H](NC(=O)[C@H](CCCCN)NC(=O)[C@H](Cc1ccccc1)NC(=O)[C@H](CC(C)C)NC(=O)[C@@H]1CCCN1C(=O)[C@H](CCCCN)NC(=O)[C@H](CCCCN)NC(=O)[C@H](CO)NC(=O)[C@@H](N)CCCCN)C(=O)NC(Cc1c[nH]c2ncccc12)C(=O)N[C@@H](CCCCN)C(=O)N[C@@H](CO)C(=O)N[C@H](C(=O)N[C@@H](CCC(=O)O)C(=O)N[C@@H](CC(N)=O)C(=O)N[C@H](C(=O)N[C@@H](CO)C(=O)N[C@H](C(=O)N[C@@H](CC(C)C)C(=O)N[C@@H](Cc1c[nH]c2ccccc12)C(=O)N[C@@H](Cc1ccc(O)cc1)C(=O)N[C@@H](CCCCN)C(N)=O)C(C)C)C(C)C)C(C)C (some centres unmarked) [NCR169C17–38C12,17/S-10W^7-Aza II] (H-KSKKPLFKI[ξTrp(7-aza)]KSVENVSVLWYK-NH2; N-terminus assumed) | 3.1 µM (≈ 8.4 µg/mL) |  | 3.1 µM (≈ 8.4 µg/mL) | 3.1 µM (≈ 8.4 µg/mL) | 6.3 µM (≈ 17.1 µg/mL) | 6.3 µM (≈ 17.1 µg/mL) | 3.1 µM | 3.1 µM (≈ 8.4 µg/mL) | 3.1 µM (≈ 8.4 µg/mL) | 3.1 µM (≈ 8.4 µg/mL) |  |  |  |  |  |  |  |  |
| CC[C@H](C)[C@H](NC(=O)[C@H](CCCCN)NC(=O)[C@H](Cc1ccccc1)NC(=O)[C@H](CC(C)C)NC(=O)[C@@H]1CCCN1C(=O)[C@H](CCCCN)NC(=O)[C@H](CCCCN)NC(=O)[C@H](CO)NC(=O)[C@@H](N)CCCCN)C(=O)N[C@@H](Cc1c[nH]c2ccccc12)C(=O)N[C@@H](CCCCN)C(=O)N[C@@H](CO)C(=O)N[C@H](C(=O)N[C@@H](CCC(=O)O)C(=O)N[C@@H](CC(N)=O)C(=O)N[C@H](C(=O)N[C@@H](CO)C(=O)N[C@H](C(=O)N[C@@H](CC(C)C)C(=O)NC(Cc1c[nH]c2ccc(C)cc12)C(=O)N[C@@H](Cc1ccc(O)cc1)C(=O)N[C@@H](CCCCN)C(N)=O)C(C)C)C(C)C)C(C)C (some centres unmarked) [NCR169C17–38C12,17/S-20W^5-Me I] (H-KSKKPLFKIWKSVENVSVL[ξTrp(5-Me)]YK-NH2; N-terminus assumed) | 6.3 µM (≈ 17.1 µg/mL) |  | 12.5 µM (≈ 34 µg/mL) | 6.3 µM (≈ 17.1 µg/mL) | 6.3 µM (≈ 17.1 µg/mL) | 12.5 µM (≈ 34 µg/mL) | 6.3 to 12.5 µM | 6.3 µM (≈ 17.1 µg/mL) | 6.3 µM (≈ 17.1 µg/mL) | 6.3 µM (≈ 17.1 µg/mL) |  |  |  |  |  |  |  |  |
| KSKKPLFKIWKSVENVSVLW^5-MeOYK [NCR169C17–38C12,17/S-20W^5-MeO, NCR169C17–38C12,17/S analog with 5-methoxy tryptophan at position 20, forms not separated] |  | 0.8 µM |  |  |  |  |  |  |  |  | 3.1 µM | 3.1 µM | 3.1 µM | 3.1 µM | 3.1 µM | 3.1 µM | 3.1 µM | 3.1 µM |
| CC[C@H](C)[C@H](NC(=O)[C@H](CCCCN)NC(=O)[C@H](Cc1ccccc1)NC(=O)[C@H](CC(C)C)NC(=O)[C@@H]1CCCN1C(=O)[C@H](CCCCN)NC(=O)[C@H](CCCCN)NC(=O)[C@H](CO)NC(=O)[C@@H](N)CCCCN)C(=O)N[C@@H](Cc1c[nH]c2ccc(F)cc12)C(=O)N[C@@H](CCCCN)C(=O)N[C@@H](CO)C(=O)N[C@H](C(=O)N[C@@H](CCC(=O)O)C(=O)N[C@@H](CC(N)=O)C(=O)N[C@H](C(=O)N[C@@H](CO)C(=O)N[C@H](C(=O)N[C@@H](CC(C)C)C(=O)N[C@@H](Cc1c[nH]c2ccccc12)C(=O)N[C@@H](Cc1ccc(O)cc1)C(=O)N[C@@H](CCCCN)C(N)=O)C(C)C)C(C)C)C(C)C [NCR169C17–38C12,17/S-10W^5-F-L] (H-KSKKPLFKI[Trp(5-F)]KSVENVSVLWYK-NH2; N-terminus assumed) | 1.6 µM (≈ 4.36 µg/mL) |  | 1.6 µM (≈ 4.36 µg/mL) | 1.6 µM (≈ 4.36 µg/mL) | 1.6 µM (≈ 4.36 µg/mL) | 3.1 µM (≈ 8.45 µg/mL) | 1.6 µM | 1.6 µM (≈ 4.36 µg/mL) | 1.6 µM (≈ 4.36 µg/mL) | 1.6 µM (≈ 4.36 µg/mL) |  |  |  |  | 3.1 µM (≈ 8.45 µg/mL) | 1.6—6.3 µM |  |  |
| CC[C@H](C)[C@H](NC(=O)[C@H](CCCCN)NC(=O)[C@H](Cc1ccccc1)NC(=O)[C@H](CC(C)C)NC(=O)[C@@H]1CCCN1C(=O)[C@H](CCCCN)NC(=O)[C@H](CCCCN)NC(=O)[C@H](CO)NC(=O)[C@@H](N)CCCCN)C(=O)N[C@@H](Cc1c[nH]c2ccccc12)C(=O)N[C@@H](CCCCN)C(=O)N[C@@H](CO)C(=O)N[C@H](C(=O)N[C@@H](CCC(=O)O)C(=O)N[C@@H](CC(N)=O)C(=O)N[C@H](C(=O)N[C@@H](CO)C(=O)N[C@H](C(=O)N[C@@H](CC(C)C)C(=O)NC(Cc1c[nH]c2ncccc12)C(=O)N[C@@H](Cc1ccc(O)cc1)C(=O)N[C@@H](CCCCN)C(N)=O)C(C)C)C(C)C)C(C)C (some centres unmarked) [NCR169C17–38C12,17/S-20W^7-Aza II] (H-KSKKPLFKIWKSVENVSVL[ξTrp(7-aza)]YK-NH2; N-terminus assumed) | 12.5 µM (≈ 33.9 µg/mL) |  | 12.5 µM (≈ 33.9 µg/mL) | 12.5 µM (≈ 33.9 µg/mL) | 12.5 µM (≈ 33.9 µg/mL) | 12.5 µM (≈ 33.9 µg/mL) | 12.5 µM | 12.5 µM (≈ 33.9 µg/mL) | 12.5 µM (≈ 33.9 µg/mL) | 12.5 µM (≈ 33.9 µg/mL) |  |  |  |  |  |  |  |  |

Source: paper PMC9917201, “Enhanced Antibacterial Activity of Substituted Derivatives of NCR169C Peptide” (International Journal of Molecular Sciences, 2023)
